According to publication PMC9143821, “Design and Synthesis of a Novel 4-aryl-N-(2-alkoxythieno [2,3-b]pyrazine-3-yl)-4-arylpiperazine-1-carboxamide DGG200064 Showed Therapeutic Effect on Colon Cancer through G2/M Arrest” (Pharmaceuticals, 2022):
≈ marks a conversion by molar mass, not a printed value. Where two headings read alike, the source gives them in different places.

Assays:
[1] = pKa determination; assay type: physicochemical
Text: (§1) Table 4 Physicochemical Properties of the Lead Compounds 7c. | column: 7c

[2] = Solubility (logS); assay type: physicochemical; conditions: for solubility: thermodynamic from solid, read-out: Solubility (logS) Equilibrium (converted)
Text: as §1

[3] = system: HCT116 mouse tumor models; test: HCT116 xenograft mouse tumor model; assay type: in vivo, nude BALB/c mice; conditions: 6 days/week, 21 days
Method: We tested the inhibition effect by DGG200064 in the HCT116 mouse tumor models (Figure 6a). Cultured HCT116 cells were injected subcutaneously near the scapulae of 6-week-old female nude BALB/c mice. Oral administration of DGG200064 (60, 120 mg/kg) began when tumors reached a volume of 100 mm^3 and proceeded for 6 days/week. […] Mice were then injected intraperitoneally with BrdU and anesthetized 2 h later. They were then perfused with PBS and killed. To identify the level of c-Jun by DGG200064, HCT116 tumors harvested from mice were fixed and analyzed by immunohistochemical staining for Hematoxylin and c-Jun. […]
Xenografts were initiated in female Bagg and Albino (BALB)/c nude mice (6–8 weeks old; n = 18). […] The size of the primary tumors was measured every 2–3 days using calipers. Tumor volume was calculated using the formula, v = (A × B2)/2, where […] is the short diameter (mm). […]
The isolated tumors issued were then stained with antibodies against BrdU (1:700), c-Jun (1:50). […] Endogenous peroxidase activity was blocked with hydrogen peroxide, and background staining was blocked with V block solution, the primary antibodies were detected with horseradish […] (HRP)-conjugated polymer and developed with diaminobenzidine (DAB). […] Positively stained nuclei were counted, and the differences between the groups were analyzed using Student’s t-test, p values ≤0.05 were considered significant.

[4] = system: HCT15; test: SRB assay, colon cancer cell growth inhibition; assay type: cell-based; conditions: Homo sapiens, HCT-15, 48 h
Method: (§2) A series of 4-phenyl-N-(thieno[2,3-b]pyrazin-3-yl)piperazine-1-carboxamides derivatives 7a–7i were tested for the colon cancer cell growth inhibition effect using the SRB assay (Table 2). […] Compounds 7a and 7b, containing chlorine at the C6 position of thieno[2,3-b]pyrazine ring, have weaker anticancer activity than its proton-containing derivatives 7c–7i. On the other hand, 7c has shown higher inhibition activity than 7d with methyl substituents at the C3 and C5 positions of the phenyl ring. […] Substitutions with one fluorine atom in the phenyl ring could not improve the inhibition effect of the compounds 7g–7h.
(§3) The HCT116, HCT8, KM12, HCT15, HT29, COLO-205, SW620 cell line was obtained from the National Cancer Institute (Material Transfer Agreement number: 2702–09). DLD1 cell line was obtained from the Korean cell line bank. Cells were cultured in complete Roswell Park Memorial Institute (RPMI) 1640 medium (Hyclone, South Logan, UT, USA) containing 10% fetal bovine serum (Hyclone, South Logan, UT, USA) in an atmosphere of 5% CO2 and 100% humidity at 37 °C. A small interfering RNA (siRNA) duplex targeting human c-Jun and FBXW7 (Genolution, Seoul, Korea) were introduced into cells using Lipofector-EXT (AptaBio, Yongin, Korea), according to the manufacturer’s instructions. As negative controls, cells were incubated with Lipofector-EXT (AptaBio, Yongin, KOR) and a negative siRNA (Genolution, Seoul, Korea).
(§4) Cells (100 μL containing 5000–10,000 cells/well) were incubated in 96 well microtiter plates. After 24 h, drugs were added (100 μL) to each well and the cultures were incubated for 48 h at 37 °C. The cells were then fixed in TCA (50 μL per well). The plates were incubated for a minimum of 1 h or a maximum of 3 h at 4 °C. The liquid was removed from the plate, which was then rinsed five times with water and allowed to dry at room temperature (rt) for approximately 12–24 h. The fixed cells were stained with 100 μL Sulforhodamine B (SRB) solution for 5 min at rt. After staining, the plate was washed three times with 1% glacial acetic acid and dried at rt for approximately 12–24 h. The SRB was then solubilized in 10 mM Tris buffer, and the absorbance was read at 515 nm. The effect of the drugs was expressed as GI50 (50% growth inhibition).

[5] = system: HCT8; test: SRB assay, colon cancer cell growth inhibition; assay type: cell-based; conditions: Homo sapiens, HCT-8, 48 h
Method: as §2, §3, §4

[6] = system: HT29; test: SRB assay, colon cancer cell growth inhibition; assay type: cell-based; conditions: Homo sapiens, HT-29, 48 h
Method: as §2, §3, §4

[7] = system: KM12; test: SRB assay, colon cancer cell growth inhibition; assay type: cell-based; conditions: Homo sapiens, 48 h
Method: as §2, §3, §4

[8] = system: SW620; test: SRB assay, colon cancer cell growth inhibition; assay type: cell-based; conditions: Homo sapiens, SW-620, 48 h
Method: as §2, §3, §4

[9] = system: Colo205; test: SRB assay, colon cancer cell growth inhibition; assay type: cell-based; conditions: Homo sapiens, COLO 205, 48 h
Method: as §2, §3, §4

[10] = system: HCT116; test: SRB assay, colon cancer cell growth inhibition; assay type: cell-based; conditions: Homo sapiens, HCT-116; HCT116, SRB, 48 h
Method: as §2, §3, §4

COc1cc(OC)cc(N2CCN(C(=O)Nc3nc4sccc4nc3OC)CC2)c1 [Compound 7c, 4-(3,5-Dimethoxyphenyl)-N-(2-methoxythieno[2,3-b]pyrazin-3-yl)piperazine-1-carboxamide]
pKa ([1]; first of two values): 2.39 | pKa ([1]; second of two values): 11.6 | solubility ([2]; pH 2, aqueous buffer, pH2.0): 2090 µM (≈ 897 µg/mL) | solubility kinetic ([2]; pH 7.4, aqueous buffer, kinetic from dmso stock, pH7.4): 741 µM (≈ 318 µg/mL) | solubility ([2]; pH 7.4, aqueous buffer, pH7.4): 603 µM (≈ 259 µg/mL) | solubility ([2]; pH 9, aqueous buffer, pH9.0): 617 µM (≈ 265 µg/mL) | c-Jun expression increase in tumors compared to the control group (IHC) ([3]; 60 mg/kg oral): 1.2 fold | c-Jun expression increase in tumors compared to the control group (IHC) ([3]; 120 mg/kg oral): 2 fold | GI50 [4]: 26 nM | GI50 [5]: 54 nM | GI50 [6]: 17 nM | GI50 [7]: 8 nM | GI50 [8]: 27 nM | GI50 [9]: 24 nM | GI50 [10]: 12 nM
